pIC50: −log10 of the molar value.
How the values were obtained:
[1] = tested on: Mino cells; assay: Antiproliferative effect, MTS cell viability assay, Mino cells; type: cell-based; details: Homo sapiens, MINO, Mino mantle cell lymphoma cells; read-out: IC50 (anti-proliferation) Mino cells
Outline: (§1)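 Absorbance at 490 nm of formazan, formed by metabolically active cells from MTS tetrazolium, served as the viability measure after a 72 h treatment across a 0.001–10 μM concentration series plus untreated control.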

[2] = target: BTK (Homo sapiens, UniProt Q06187); assay: Degradation of BTK protein in Namalwa cells (Western blot; DC50, Dmax); details: for DC50: BTK degradation, cell line not given
[3] = tested on: JeKo-1 cells; assay: Antiproliferative effect, MTS cell viability assay, JeKo-1 cells; type: cell-based; details: Homo sapiens; JeKo-1 mantle cell lymphoma cells; read-out: IC50 (anti-proliferation) JeKO-1 cells
Outline: as §1

Sequence of BTK (Q06187 whole entry): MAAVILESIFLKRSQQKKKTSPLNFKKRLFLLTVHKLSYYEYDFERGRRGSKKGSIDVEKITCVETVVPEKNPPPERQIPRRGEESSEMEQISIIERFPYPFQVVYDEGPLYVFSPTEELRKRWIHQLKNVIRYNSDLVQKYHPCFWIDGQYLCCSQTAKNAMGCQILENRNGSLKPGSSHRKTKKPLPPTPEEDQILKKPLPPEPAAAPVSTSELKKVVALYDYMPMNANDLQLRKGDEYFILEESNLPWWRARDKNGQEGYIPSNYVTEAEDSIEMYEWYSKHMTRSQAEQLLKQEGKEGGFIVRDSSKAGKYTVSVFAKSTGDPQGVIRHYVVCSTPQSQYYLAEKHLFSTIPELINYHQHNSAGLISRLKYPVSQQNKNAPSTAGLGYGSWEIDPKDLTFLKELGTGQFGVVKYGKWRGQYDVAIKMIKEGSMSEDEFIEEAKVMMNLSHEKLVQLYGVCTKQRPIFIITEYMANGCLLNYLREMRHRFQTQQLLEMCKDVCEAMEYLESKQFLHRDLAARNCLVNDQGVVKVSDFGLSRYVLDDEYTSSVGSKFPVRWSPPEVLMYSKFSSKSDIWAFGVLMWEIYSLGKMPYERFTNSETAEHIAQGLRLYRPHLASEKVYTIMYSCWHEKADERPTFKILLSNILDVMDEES

NC(=O)c1c(-c2ccc(Oc3ccccc3)cc2)nn2c1NCC[C@H]2C1CCN(C2CCN(CCN3CCC(c4ccc5c(c4)CN(C4CCC(=O)NC4=O)C5=O)CC3)CC2)CC1 (stereo partly drawn) [Compound 328, (7S)-7-(1′-(2-(4-(2-(2,6-dioxopiperidin-3-yl)-1-oxoisoindolin-5-yl)piperidin-1-yl)ethyl)-[1,4′-bipiperidin]-4-yl)-2-(4-phenoxyphenyl)-4,5,6,7-tetrahydropyrazolo[1,5-a]pyrimidine-3-carboxamide]
pIC50 [1]: 5.00 to 6.00 | Dmax [2]: > 75% | DC50 [2]: 0.01 to 0.05 µM | pIC50 [3]: 5.00 to 6.00

NC(=O)c1c(-c2ccc(Oc3ccccc3)cc2)nn2c1NCC[C@H]2C1CCN(CC2CCN(CC3CCN(c4ccc5c(c4)C(=O)N(C4CCC(=O)NC4=O)C5=O)CC3)CC2)CC1 (stereo partly drawn) [Compound 329, (7S)-7-(1-((1-((1-(2-(2,6-dioxopiperidin-3-yl)-1,3-dioxoisoindolin-5-yl)piperidin-4-yl)methyl)piperidin-4-yl)methyl)piperidin-4-yl)-2-(4-phenoxyphenyl)-4,5,6,7-tetrahydropyrazolo[1,5-a]pyrimidine-3-carboxamide]
pIC50 [1]: < 5.00 | Dmax [2]: > 75% | DC50 [2]: 0.01 to 0.05 µM | pIC50 [3]: < 5.00

NC(=O)c1c(-c2ccc(Oc3ccccc3)cc2)nn2c1NCC[C@H]2C1CCN(CC2CCN(CC3CCN(c4ccc5c(c4)CN(C4CCC(=O)NC4=O)C5=O)CC3)CC2)CC1 (stereo partly drawn) [Compound 330, (7S)-7-(1-((1-((1-(2-(2,6-dioxopiperidin-3-yl)-1-oxoisoindolin-5-yl)piperidin-4-yl)methyl)piperidin-4-yl)methyl)piperidin-4-yl)-2-(4-phenoxyphenyl)-4,5,6,7-tetrahydropyrazolo[1,5-a]pyrimidine-3-carboxamide]
pIC50 [1]: 5.00 to 6.00 | Dmax [2]: > 75% | DC50 [2]: 0.01 to 0.05 µM | pIC50 [3]: 5.00 to 6.00

NC(=O)c1c(-c2ccc(Oc3ccccc3)cc2)nn2c1NCC[C@H]2C1CCN(CC2CCN(CCN3CCN(c4ccc5c(c4)C(=O)N(C4CCC(=O)NC4=O)C5=O)CC3)CC2)CC1 (stereo partly drawn) [Compound 331, (7S)-7-(1-((1-(2-(4-(2-(2,6-dioxopiperidin-3-yl)-1,3-dioxoisoindolin-5-yl)piperazin-1-yl)ethyl)piperidin-4-yl)methyl)piperidin-4-yl)-2-(4-phenoxyphenyl)-4,5,6,7-tetrahydropyrazolo[1,5-a]pyrimidine-3-carboxamide]
pIC50 [1]: < 5.00 | Dmax [2]: > 75% | DC50 [2]: > 0.05 µM | pIC50 [3]: 5.00 to 6.00

NC(=O)c1c(-c2ccc(Oc3ccccc3)cc2)nn2c1NCC[C@H]2C1CCN(CC2CCN(CCN3CCN(c4ccc5c(c4)CN(C4CCC(=O)NC4=O)C5=O)CC3)CC2)CC1 (stereo partly drawn) [Compound 332, (7S)-7-(1-((1-(2-(4-(2-(2,6-dioxopiperidin-3-yl)-1-oxoisoindolin-5-yl)piperazin-1-yl)ethyl)piperidin-4-yl)methyl)piperidin-4-yl)-2-(4-phenoxyphenyl)-4,5,6,7-tetrahydropyrazolo[1,5-a]pyrimidine-3-carboxamide]
pIC50 [1]: 5.00 to 6.00 | Dmax [2]: > 75% | DC50 [2]: > 0.05 µM | pIC50 [3]: 5.00 to 6.00

NC(=O)c1c(-c2ccc(Oc3ccccc3)cc2)nn2c1NCC[C@H]2C1CCN(CC2CCN(CCC3CCN(c4ccc5c(c4)C(=O)N(C4CCC(=O)NC4=O)C5=O)CC3)CC2)CC1 (stereo partly drawn) [Compound 333, (7S)-7-(1-((1-(2-(1-(2-(2,6-dioxopiperidin-3-yl)-1,3-dioxoisoindolin-5-yl)piperidin-4-yl)ethyl)piperidin-4-yl)methyl)piperidin-4-yl)-2-(4-phenoxyphenyl)-4,5,6,7-tetrahydropyrazolo[1,5-a]pyrimidine-3-carboxamide]
pIC50 [1]: 5.00 to 6.00 | Dmax [2]: > 75% | DC50 [2]: 0.01 to 0.05 µM | pIC50 [3]: < 5.00

NC(=O)c1c(-c2ccc(Oc3ccccc3)cc2)nn2c1NCC[C@H]2C1CCN(CC2CCN(CCC3CCN(c4ccc5c(c4)CN(C4CCC(=O)NC4=O)C5=O)CC3)CC2)CC1 (stereo partly drawn) [Compound 334, (7S)-7-(1-((1-(2-(1-(2-(2,6-dioxopiperidin-3-yl)-1-oxoisoindolin-5-yl)piperidin-4-yl)ethyl)piperidin-4-yl)methyl)piperidin-4-yl)-2-(4-phenoxyphenyl)-4,5,6,7-tetrahydropyrazolo[1,5-a]pyrimidine-3-carboxamide]
pIC50 [1]: < 5.00 | Dmax [2]: > 75% | DC50 [2]: 0.01 to 0.05 µM | pIC50 [3]: < 5.00

NC(=O)c1c(-c2ccc(Oc3ccccc3)cc2)nn2c1NCC[C@H]2C1CCN(CC2CCN(CCN3CCC(c4ccc5c(c4)C(=O)N(C4CCC(=O)NC4=O)C5=O)CC3)CC2)CC1 (stereo partly drawn) [Compound 335, (7S)-7-(1-((1-(2-(4-(2-(2,6-dioxopiperidin-3-yl)-1,3-dioxoisoindolin-5-yl)piperidin-1-yl)ethyl)piperidin-4-yl)methyl)piperidin-4-yl)-2-(4-phenoxyphenyl)-4,5,6,7-tetrahydropyrazolo[1,5-a]pyrimidine-3-carboxamide]
pIC50 [1]: 5.00 to 6.00 | Dmax [2]: > 75% | DC50 [2]: > 0.05 µM | pIC50 [3]: 5.00 to 6.00

NC(=O)c1c(-c2ccc(Oc3ccccc3)cc2)nn2c1NCC[C@H]2C1CCN(CC2CCN(CCN3CCC(c4ccc5c(c4)CN(C4CCC(=O)NC4=O)C5=O)CC3)CC2)CC1 (stereo partly drawn) [Compound 336, (7S)-7-(1-((1-(2-(4-(2-(2,6-dioxopiperidin-3-yl)-1-oxoisoindolin-5-yl)piperidin-1-yl)ethyl)piperidin-4-yl)methyl)piperidin-4-yl)-2-(4-phenoxyphenyl)-4,5,6,7-tetrahydropyrazolo[1,5-a]pyrimidine-3-carboxamide]
pIC50 [1]: 5.00 to 6.00 | Dmax [2]: > 75% | DC50 [2]: 0.01 to 0.05 µM | pIC50 [3]: 5.00 to 6.00

NC(=O)c1c(-c2ccc(Oc3ccccc3)cc2)nn2c1NCCC2C1CCN(C2CCN(C(=O)N3CCN(c4ccc5c(c4)C(=O)N(C4CCC(=O)NC4=O)C5=O)CC3)CC2)CC1 (stereo not shown) [Compound 337, 7-(1′-(4-(2-(2,6-dioxopiperidin-3-yl)-1,3-dioxoisoindolin-5-yl)piperazine-1-carbonyl)-[1,4′-bipiperidin]-4-yl)-2-(4-phenoxyphenyl)-4,5,6,7-tetrahydropyrazolo[1,5-a]pyrimidine-3-carboxamide]
pIC50 [1]: < 5.00 | Dmax [2]: > 50% | DC50 [2]: > 0.05 µM | pIC50 [3]: 5.00 to 6.00

NC(=O)c1c(-c2ccc(Oc3ccccc3)cc2)nn2c1NCCC2C1CCN(C2CCN(C(=O)N3CCN(c4ccc5c(c4)CN(C4CCC(=O)NC4=O)C5=O)CC3)CC2)CC1 (stereo not shown) [Compound 338, 7-(1′-(4-(2-(2,6-dioxopiperidin-3-yl)-1-oxoisoindolin-5-yl)piperazine-1-carbonyl)-[1,4′-bipiperidin]-4-yl)-2-(4-phenoxyphenyl)-4,5,6,7-tetrahydropyrazolo[1,5-a]pyrimidine-3-carboxamide]
pIC50 [1]: 5.00 to 6.00 | Dmax [2]: > 50% | DC50 [2]: > 0.05 µM | pIC50 [3]: < 5.00

NC(=O)c1c(-c2ccc(Oc3ccccc3)cc2)nn2c1NCCC2C1CCN(C2CCN(C(=O)N3CCN(Cc4ccc5c(c4)C(=O)N(C4CCC(=O)NC4=O)C5=O)CC3)CC2)CC1 (stereo not shown) [Compound 339, 7-(1′-(4-((2-(2,6-dioxopiperidin-3-yl)-1,3-dioxoisoindolin-5-yl)methyl)piperazine-1-carbonyl)-[1,4′-bipiperidin]-4-yl)-2-(4-phenoxyphenyl)-4,5,6,7-tetrahydropyrazolo[1,5-a]pyrimidine-3-carboxamide]
pIC50 [1]: < 5.00 | Dmax [2]: > 50% | DC50 [2]: > 0.05 µM | pIC50 [3]: < 5.00

NC(=O)c1c(-c2ccc(Oc3ccccc3)cc2)nn2c1NCCC2C1CCN(C2CCN(C(=O)N3CCN(Cc4ccc5c(c4)CN(C4CCC(=O)NC4=O)C5=O)CC3)CC2)CC1 (stereo not shown) [Compound 340, 7-(1′-(4-((2-(2,6-dioxopiperidin-3-yl)-1-oxoisoindolin-5-yl)methyl)piperazine-1-carbonyl)-[1,4′-bipiperidin]-4-yl)-2-(4-phenoxyphenyl)-4,5,6,7-tetrahydropyrazolo[1,5-a]pyrimidine-3-carboxamide]
pIC50 [1]: < 5.00 | Dmax [2]: > 50% | DC50 [2]: > 0.05 µM | pIC50 [3]: < 5.00

NC(=O)c1c(-c2ccc(Oc3ccccc3)cc2)nn2c1NCCC2C1CCN(C2CCN(C(=O)N3CCC(N4CCN(c5ccc6c(c5)C(=O)N(C5CCC(=O)NC5=O)C6=O)CC4)CC3)CC2)CC1 (stereo not shown) [Compound 341, 7-(1′-(4-(4-(2-(2,6-dioxopiperidin-3-yl)-1,3-dioxoisoindolin-5-yl)piperazin-1-yl)piperidine-1-carbonyl)-[1,4′-bipiperidin]-4-yl)-2-(4-phenoxyphenyl)-4,5,6,7-tetrahydropyrazolo[1,5-a]pyrimidine-3-carboxamide]
pIC50 [1]: 5.00 to 6.00 | Dmax [2]: > 90% | DC50 [2]: 0.01 to 0.05 µM | pIC50 [3]: > 6.00

NC(=O)c1c(-c2ccc(Oc3ccccc3)cc2)nn2c1NCCC2C1CCN(C2CCN(C(=O)N3CCC(N4CCN(c5ccc6c(c5)CN(C5CCC(=O)NC5=O)C6=O)CC4)CC3)CC2)CC1 (stereo not shown) [Compound 342, 7-(1′-(4-(4-(2-(2,6-dioxopiperidin-3-yl)-1-oxoisoindolin-5-yl)piperazin-1-yl)piperidine-1-carbonyl)-[1,4′-bipiperidin]-4-yl)-2-(4-phenoxyphenyl)-4,5,6,7-tetrahydropyrazolo[1,5-a]pyrimidine-3-carboxamide]
pIC50 [1]: > 6.00 | Dmax [2]: > 90% | DC50 [2]: < 0.01 µM | pIC50 [3]: > 6.00

NC(=O)c1c(-c2ccc(Oc3ccccc3)cc2)nn2c1NCCC2C1CCN(C2CCN(C(=O)N3CCC(C4CCN(c5ccc6c(c5)C(=O)N(C5CCC(=O)NC5=O)C6=O)CC4)CC3)CC2)CC1 (stereo not shown) [Compound 343, 7-(1′-(1′-(2-(2,6-dioxopiperidin-3-yl)-1,3-dioxoisoindolin-5-yl)-[4,4′-bipiperidine]-1-carbonyl)-[1,4′-bipiperidin]-4-yl)-2-(4-phenoxyphenyl)-4,5,6,7-tetrahydropyrazolo[1,5-a]pyrimidine-3-carboxamide]
pIC50 [1]: 5.00 to 6.00 | Dmax [2]: > 90% | DC50 [2]: < 0.01 µM | pIC50 [3]: > 6.00
